What was measured:
MC65 cells = assay: Cytotoxicity assay in MC65 cells (MTS, +TC/−TC); assay type: cell-based, human; conditions: 72 hrs
From the text: Protective effects of 14 on AβOs-induced cytotoxicity in MC65 cells and differentiated human neuroblastoma SH-SY5Y cells. […] To further verify whether 14 can protect cells from extracellular AβOs-induced cytotoxicity, all trans-retinoic acid differentiated human SH-SY5Y cells were employed. […] This may further indicate that while both 1 and 14 can bind to AβOs, CM/LR anchorage of 14 can increase its accessibility to intracellular target AβOs. Since CM/LR are crucial for many aspects of cell signaling and functions, 14 was further evaluated for its potential cytotoxicity in mouse spleen and natural killer (NK) cells.
Cytotoxicity assay in MC65 cells. MC65 cells were seeded in 96-well plates (4×10^4 cells/well) at 37° C., 5% CO2 for 24 hrs. The medium was removed and washed with PBS twice. Opti-MEM and test compounds were added under +TC and −TC conditions. The plates were incubated at 37° C., 5% CO2 for 72 hrs, then 20 uL CellTiter 96 AQueous One Solution (Promega, Madison, Wis.) were added to each well and the plates were incubated at 37° C., 5% CO2 for 2-4 hrs. The plates were read at 490 nm using FlexStation III plate reader (Molecular Devices). The blank with only test compounds in Opti-MEM was set up as background control for all of the tested concentrations. Each data point was averaged from six replicates and the experiments were independently repeated at least three times.

[1] = target: bovine serum albumin (BSA) (Bos taurus, UniProt P02769); assay: Fluorescence polarization binding to BSA; conditions: read-out: binding affinity to BSA (Kd)
Chain of bovine serum albumin (BSA) (P02769 25-607): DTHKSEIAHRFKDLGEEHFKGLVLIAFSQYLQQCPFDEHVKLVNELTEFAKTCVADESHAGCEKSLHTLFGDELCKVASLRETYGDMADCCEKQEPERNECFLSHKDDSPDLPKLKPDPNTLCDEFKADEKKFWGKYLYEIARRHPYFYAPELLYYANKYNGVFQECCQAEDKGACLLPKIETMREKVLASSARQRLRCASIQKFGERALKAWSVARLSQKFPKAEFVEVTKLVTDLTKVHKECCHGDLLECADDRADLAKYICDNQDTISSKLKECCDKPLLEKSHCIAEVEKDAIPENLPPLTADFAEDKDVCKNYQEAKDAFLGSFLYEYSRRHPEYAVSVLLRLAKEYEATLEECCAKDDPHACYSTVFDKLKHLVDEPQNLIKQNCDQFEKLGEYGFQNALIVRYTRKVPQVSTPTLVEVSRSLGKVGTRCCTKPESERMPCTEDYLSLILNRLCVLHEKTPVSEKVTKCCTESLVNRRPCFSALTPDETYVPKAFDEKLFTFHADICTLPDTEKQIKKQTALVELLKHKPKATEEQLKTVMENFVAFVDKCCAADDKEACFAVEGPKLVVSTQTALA
Procedure: (§1) FIG. 8A-C. BMAOI 14 binds to Aβ42 monomers, oligomers, and fibrils, but not BSA. A. The monomers, oligomers and fibrils of Aβ42 were prepared according to established protocols and confirmed by TEM; B. Compound 14 (1 μM) was incubated with different forms of Aβ42 at indicated concentrations for 3 hrs. Then, fluorescence polarization change of 14 was recorded and the binding affinity was calculated; C. Compound 14 was incubated with BSA as described in B and the binding affinity was calculated.
(§2) To determine the binding affinity of 14 to Aβ, we evaluated changes in fluorescence polarization values of this probe at different 14:Aβ ratios for monomeric, oligomeric, and fibrillary Aβ species, respectively. Aβ42 is chosen to evaluate the binding of probe as it is the major and most sticky amyloid peptide found in AD plaques.^1 The formation of different Aβ42 species was confirmed by transmission electron microscope (TEM) as shown in FIG. 8A. […] It appears that 14 binds to Aβ42 with micromolar affinity and slightly favors […] fibrils over monomers and oligomers.

NK cells = assay: IL-2 augmented natural killer (NK) cell activity; assay type: cell-based, B6C3F1 mice; conditions: 10 μM
Procedure: IL-2 augmented natural killer (NK) cell activity. […] Recombinant IL-2 (Chiron, Emeryville, Calif.) at a volume of 50 μL was added to each well so that the final concentration of IL-2 was 5000 fU/mL. The plates were cultured overnight in the presence of 1 or 14 (10 μM), and then assayed for NK cell activity using ^51Cr-labeled YAC-1 cells as the target cells. The ^51Cr-YAC-1 cells were added to each well of a 96-well plate to obtain E:T ratio of 50:1. […] Following 4 hrs incubation, the plates were centrifuged, and 0.1 mL of the supernatant was removed from each well and the radioactivity counted. The mean percentage of cytotoxicity was determined.

Aβ42 oligomers = target: T1, Aβ42 oligomers (Homo sapiens, UniProt P05067); assay: Fluorescence polarization binding to Aβ42 oligomers; conditions: compound 1 μM, 3 hrs, read-out: apparent binding constant (Kd) for Aβ42 oligomers
T1 construct: The monomers, oligomers and fibrils of Aβ42 were prepared according to established protocols and confirmed by TEM
T1 sequence (P05067 672-713 limits assumed): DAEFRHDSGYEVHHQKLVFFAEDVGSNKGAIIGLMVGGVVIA
Procedure: as §1, §2

splenocytes = assay: Anti-CD3 antibody mediated splenocyte proliferation; assay type: cell-based, B6C3F1 mice; conditions: 10 μM
Procedure: Anti-CD3 antibody mediated splenocyte proliferation. […] The splenocytes (2×10^5/well) were cultured in the microtiter wells coated with anti-CD3 Ab (1 μg/mL; BD PharMingen) in the presence of 1 or 14 (10 μM) at 37° C. in 5% CO2. Prior to harvest on day 3, the cells were pulsed with ^3H-thymidine for 18-24 hours. The incorporation of ^3H-thymidine into the proliferating cells was used as the endpoint of the assay, and the data were expressed as CPM/2×10^5 cells.

AβOs = assay: Immunocytochemistry assay of AβOs in MC65 cells (A11 antibody); assay type: cell-based, human; conditions: 10 μM, 24 hrs after removal of TC
Procedure: MC65 cells were treated with the indicated compounds (10 μM) immediately after the removal of TC. After 24 hrs, the cells were fixed and immunofluorescently stained for AβOs, CM/LR, and nucleus and imaged with a Leica TCS-SP2 AOBS confocal laser scanning microscope. Five areas were examined.
Immunocytochemistry assay. MC65 cells were plated onto Lab-Tee chamber slides (1×10^4 cells/well). After 24 hrs incubation at 37° C. and 5% CO2, Opti-MEM was added (with or without TC) and followed by test compounds. MC65 cells were incubated for 24 hrs. MC65 cells were rinsed 3× with PBS and incubated with Alexa 488-conjugated CTX-B (10 ug/mL) for 15 min on ice. After rinsing once with ice-cold PBS, cells were fixed for 30 min with 4% paraformaldehyde. MC65 cells were permeabilized for 30 min with 0.1% Triton X 100. Then MC65 cells were stained with A11 rabbit antibody followed by anti-rabbit Alexa 568 (1:500). Finally MC65 cells were treated with DAPI (5 ug/mL) and mounted with Vectashield Mounting Media. Cell fluorescence was analyzed by a Leica TCS-SP2 AOBS confocal laser scanning microscope equipped with blue diode, Argon, and 3 HeNe (lasers as well as a spectrophotometer based detection system with variable detector windows) using excitation lines at 355 nm, 488 nm, and 568 nm for DAPI, Alexa 488-conjugated CTX-B, and Alexa Fluor 568 donkey anti-rabbit IgG. […]

[2] = BBB permeability in B6C3F1 mice, brain tissue analysed by HPLC; assay type: in vivo
Procedure: FIG. 10. Compound 14 can cross the blood brain barrier (BBB) of B6C3F1 mice. Compound 14 (10 mg/kg) was given to B6C3F1 female mice (n=3) by i.v. administration through tail-vein. Then the animals were sacrificed at indicated time intervals and the brain tissues were collected and analyzed by HPLC using C18 column.
An appropriate fluorescent probe must cross the BBB and selectively bind to Aβ plaques. […] Here, we further assessed the BBB permeability of 14 using female B6C3F1 mice combined with HPLC analysis. […] The results may indicate that 14 can rapidly cross the BBB and reach the brain tissue and is metabolized in a reasonable time window (˜3 hrs) that allows clinical operation. 14 appears to violate all of the empirical rules of BBB permeability with a molecule weight >1000 Da and being more lipophilic (log P>3). However, we also realize that there are exceptions and that compounds with molecular weight more than 1000 Da can efficiently cross the BBB and reach brain tissue.

Aβ42 monomers = target: T2, Aβ42 monomers (Homo sapiens, UniProt P05067); assay: Fluorescence polarization binding to Aβ42 monomers; conditions: compound 1 μM, 3 hrs, read-out: apparent binding constant (Kd) for Aβ42 monomers
T2 construct: The monomers, oligomers and fibrils of Aβ42 were prepared according to established protocols and confirmed by TEM
T2 sequence (P05067 672-713 limits assumed): as above
Procedure: as §1, §2

COc1cc(C=CC(=O)C(Cc2cn(CCCCCCNC(=O)CCNC(=O)CCNC(=O)COC3CCC4(C)C(=CCC5C4CCC4(C)C(C(C)CCCC(C)C)CCC54)C3)nn2)C(=O)C=Cc2ccc(O)c(OC)c2)ccc1O (stereo not drawn) [BMAOI 14]
toxic effects on MC65 cell viability in the presence of TC (MC65 cells; +TC, tested concentrations, MTS): no toxic effects
rescue of MC65 cell viability upon removal of TC (MC65 cells; −TC, 16 μM): nearly full rescue
protective effects on MC65 cell viability upon removal of TC (MC65 cells; −TC, MTS): protected MC65 cell survival in a dose-dependent manner
Kd [1]: ~120 µM
cytotoxic effects in NK cells (NK cells): no cytotoxic effects
Kd (Aβ42 oligomers): 2.17 µM
cytotoxic effects in mouse spleen cells (splenocytes): minimal cytotoxic effects
formation of AβOs (A11 immunocytochemistry) (AβOs): significantly inhibited
time window until disappearance from brain tissue ([2]; 10 mg/kg i.v.): ~3 h
earliest time detected in brain tissue ([2]; 10 mg/kg i.v. tail-vein, female B6C3F1 mice): 10 min
duration of presence in brain tissue ([2]; 10 mg/kg i.v., evident at 60 and 120 minutes): more than two hours
Kd (Aβ42 monomers): 2.03 µM

From patent publication US9260473B2, “Bivalent multifunctional ligands targeting Aβ oligomers as treatment for Alzheimer's disease” (Virginia Commonwealth University, priority 2010, dated 2016)
